Assay results: patent US9006464B2, “Substituted cyclopentanes having prostaglandin activity” (Allergan, Inc., priority 2007, dated 2015)
pEC50, pKi: −log10 of the molar value.

Columns and labels:
DP = target: T1, DP (Homo sapiens, UniProt Q13258); assay: Other receptors Ca2+ assay, DP; format: cell-based; conditions: DP receptor
T1 sequence (Q13258 1-359): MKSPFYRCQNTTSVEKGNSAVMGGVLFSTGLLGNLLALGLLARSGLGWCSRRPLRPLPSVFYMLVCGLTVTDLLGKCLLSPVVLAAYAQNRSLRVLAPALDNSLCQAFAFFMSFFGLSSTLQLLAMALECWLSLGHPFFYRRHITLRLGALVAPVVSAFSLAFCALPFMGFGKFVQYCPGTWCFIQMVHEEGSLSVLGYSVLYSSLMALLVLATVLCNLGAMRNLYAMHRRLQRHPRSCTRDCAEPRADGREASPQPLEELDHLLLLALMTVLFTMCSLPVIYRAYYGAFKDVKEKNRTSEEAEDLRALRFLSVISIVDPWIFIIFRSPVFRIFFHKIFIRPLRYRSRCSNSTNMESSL
From the text: (§1) U.S. patent application Ser. No. 11/553,143, filed on Oct. 26, 2006, incorporated by reference herein, describes the methods used to obtain the in vitro data in Table 1 below.

EP4 [1] = target: T2, EP4 (Homo sapiens, UniProt P35408); assay: EP4 binding (Ki)
T2 sequence (P35408 whole entry): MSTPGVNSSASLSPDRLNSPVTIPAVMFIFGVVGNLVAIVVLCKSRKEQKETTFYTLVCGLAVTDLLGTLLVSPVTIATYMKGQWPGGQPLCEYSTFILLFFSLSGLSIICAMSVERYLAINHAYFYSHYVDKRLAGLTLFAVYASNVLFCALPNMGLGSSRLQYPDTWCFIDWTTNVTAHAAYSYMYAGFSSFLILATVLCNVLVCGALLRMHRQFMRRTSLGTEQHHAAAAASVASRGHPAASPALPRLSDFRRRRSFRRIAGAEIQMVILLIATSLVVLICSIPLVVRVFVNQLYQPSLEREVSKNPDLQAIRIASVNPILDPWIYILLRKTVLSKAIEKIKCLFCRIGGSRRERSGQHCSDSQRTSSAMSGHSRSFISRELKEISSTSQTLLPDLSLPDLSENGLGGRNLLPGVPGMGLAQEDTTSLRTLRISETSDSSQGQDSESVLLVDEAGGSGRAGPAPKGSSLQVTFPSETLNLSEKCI
From the text: as §1

EP2 [2] = target: T3, EP2 (Homo sapiens, UniProt P43116); assay: EP2 cAMP assay; format: cell-based
T3 sequence (P43116 whole entry): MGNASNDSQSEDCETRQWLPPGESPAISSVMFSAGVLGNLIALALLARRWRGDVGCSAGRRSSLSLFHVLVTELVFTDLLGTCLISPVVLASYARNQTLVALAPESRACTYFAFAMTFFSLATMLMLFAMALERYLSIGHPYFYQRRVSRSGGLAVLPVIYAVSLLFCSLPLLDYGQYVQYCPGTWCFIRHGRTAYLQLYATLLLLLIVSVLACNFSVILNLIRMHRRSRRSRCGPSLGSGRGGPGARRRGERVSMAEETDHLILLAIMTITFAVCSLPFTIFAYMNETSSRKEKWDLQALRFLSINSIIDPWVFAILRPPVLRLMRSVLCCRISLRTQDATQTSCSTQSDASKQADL
From the text: as §1

IP = IP (Homo sapiens, UniProt P43119); assay: Other receptors Ca2+ assay, IP; format: cell-based; conditions: IP receptor
Sequence of IP (P43119 whole entry): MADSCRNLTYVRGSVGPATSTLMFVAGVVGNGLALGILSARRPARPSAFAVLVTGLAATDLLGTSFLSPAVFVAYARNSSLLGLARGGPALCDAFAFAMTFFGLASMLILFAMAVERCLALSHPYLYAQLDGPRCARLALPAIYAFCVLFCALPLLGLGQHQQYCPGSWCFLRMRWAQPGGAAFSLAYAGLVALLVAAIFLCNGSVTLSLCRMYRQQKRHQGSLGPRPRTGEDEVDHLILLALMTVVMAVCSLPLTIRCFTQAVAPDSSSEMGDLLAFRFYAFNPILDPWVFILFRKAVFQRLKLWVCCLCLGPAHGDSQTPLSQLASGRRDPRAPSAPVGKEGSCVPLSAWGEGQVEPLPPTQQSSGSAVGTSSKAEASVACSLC
From the text: as §1

EP3 = target: T4, EP3 (Homo sapiens, UniProt P43115); assay: Other receptors Ca2+ assay, EP3; format: cell-based; conditions: EP3 receptor
T4 sequence (P43115 1-390): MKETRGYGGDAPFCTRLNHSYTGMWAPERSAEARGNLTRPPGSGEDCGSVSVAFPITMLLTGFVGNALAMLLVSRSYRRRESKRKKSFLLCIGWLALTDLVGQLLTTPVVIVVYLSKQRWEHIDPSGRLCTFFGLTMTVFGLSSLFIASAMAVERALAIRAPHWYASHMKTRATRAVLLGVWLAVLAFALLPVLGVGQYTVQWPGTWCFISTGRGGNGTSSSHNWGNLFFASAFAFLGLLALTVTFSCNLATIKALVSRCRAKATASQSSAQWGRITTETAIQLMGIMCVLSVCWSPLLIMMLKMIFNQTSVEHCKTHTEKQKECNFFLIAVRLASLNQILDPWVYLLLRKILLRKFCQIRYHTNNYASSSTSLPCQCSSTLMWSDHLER
From the text: as §1

EP4 [3] = target: T2, EP4; assay: EP4 Ca2+ signal assay; format: cell-based
From the text: as §1

EP1 = target: T5, EP1 (Homo sapiens, UniProt P34995); assay: Other receptors Ca2+ assay, EP1; format: cell-based; conditions: EP1 receptor
T5 sequence (P34995 1-402): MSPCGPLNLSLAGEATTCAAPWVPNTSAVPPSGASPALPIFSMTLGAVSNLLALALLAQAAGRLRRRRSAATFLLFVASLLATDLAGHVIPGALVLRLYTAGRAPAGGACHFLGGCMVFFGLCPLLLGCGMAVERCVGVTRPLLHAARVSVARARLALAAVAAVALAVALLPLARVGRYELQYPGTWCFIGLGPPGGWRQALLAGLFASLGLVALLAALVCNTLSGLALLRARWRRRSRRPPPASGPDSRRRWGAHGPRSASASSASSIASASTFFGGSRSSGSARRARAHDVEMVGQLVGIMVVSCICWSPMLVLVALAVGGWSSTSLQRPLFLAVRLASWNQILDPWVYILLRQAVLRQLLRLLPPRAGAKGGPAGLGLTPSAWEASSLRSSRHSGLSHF
From the text: as §1

FP = FP (Homo sapiens, UniProt P43088); assay: Other receptors Ca2+ assay, FP; format: cell-based; conditions: FP receptor
Sequence of FP (P43088 whole entry): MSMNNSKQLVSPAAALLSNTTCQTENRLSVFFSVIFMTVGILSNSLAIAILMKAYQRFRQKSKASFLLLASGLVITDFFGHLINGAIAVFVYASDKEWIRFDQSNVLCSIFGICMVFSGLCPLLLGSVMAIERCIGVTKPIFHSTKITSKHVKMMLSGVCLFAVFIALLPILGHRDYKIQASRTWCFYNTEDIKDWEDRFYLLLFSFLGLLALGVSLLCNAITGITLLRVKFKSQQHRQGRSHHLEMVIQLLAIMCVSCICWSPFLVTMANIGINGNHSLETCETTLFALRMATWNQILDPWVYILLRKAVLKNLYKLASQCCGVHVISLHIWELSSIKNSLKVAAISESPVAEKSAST
From the text: as §1

EP2 [4] = target: T3, EP2; assay: EP2 binding (Ki)
From the text: as §1

EP2 [5] = target: T3, EP2; assay: EP2 Ca2+ signal assay; format: cell-based
From the text: as §1

TP = target: T6, TP (Homo sapiens, UniProt P21731); assay: Other receptors Ca2+ assay, TP; format: cell-based; conditions: TP receptor
T6 sequence (P21731 1-343): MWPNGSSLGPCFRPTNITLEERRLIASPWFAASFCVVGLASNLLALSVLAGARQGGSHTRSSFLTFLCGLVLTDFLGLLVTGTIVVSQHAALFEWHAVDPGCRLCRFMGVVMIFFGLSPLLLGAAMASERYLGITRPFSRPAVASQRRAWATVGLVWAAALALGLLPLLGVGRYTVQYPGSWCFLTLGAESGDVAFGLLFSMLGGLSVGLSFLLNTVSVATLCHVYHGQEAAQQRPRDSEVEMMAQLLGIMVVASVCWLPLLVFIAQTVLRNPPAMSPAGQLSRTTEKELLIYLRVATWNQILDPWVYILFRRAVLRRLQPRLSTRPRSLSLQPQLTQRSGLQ
From the text: as §1

MONKEY = assay: Monkey intraocular pressure test; format: in vivo
From the text: (§2) U.S. Pat. No. 7,091,231, incorporated by reference herein, describes the methods used to obtain the in vivo test results presented in Table 2.

DOG [6] = assay: Dog intraocular pressure test; format: in vivo
From the text: as §2

DOG [7] = assay: Dog ocular hyperemia; format: in vivo
From the text: as §2

| pEC50 (DP) | pKi (EP4 [1]) | pEC50 (EP2 [2]) | pEC50 (IP) | pEC50 (EP3) | pEC50 (EP4 [3]) | pEC50 (EP1) | pEC50 (FP) | pKi (EP2 [4]) | pEC50 (EP2 [5]) | pEC50 (TP) | DOG Max. hyperemia (DOG [7]; Conc. 0.01 g/100 mL) | DOG Max. hyperemia (DOG [7]; Conc. .005% (g/100 mL)) | SMILES | MONKEY Max. ΔIOP (MONKEY; Conc. 0.01 g/100 mL) | DOG Max. ΔIOP (DOG [6]; Conc. 0.01 g/100 mL) | MONKEY Max. ΔIOP (MONKEY; Conc. .005% (g/100 mL)) | DOG Max. ΔIOP (DOG [6]; Conc. .005% (g/100 mL)) |
| --- | --- | --- | --- | --- | --- | --- | --- | --- | --- | --- | --- | --- | --- | --- | --- | --- | --- |
| 5.65 | 6.48 | 8.70 | < 5.00 | 5.18 | 5.12 | 5.47 | ≤ 5.00 | 8.52 | 7.17 | ≤ 5.00 | – | – | CCCCCCC[C@@H]1[C@@H](CCCc2ccc(C(=O)O)s2)[C@H](Cl)C[C@H]1O [Entry 3, 5-[3-((1R,2R,3R,5R)-5-Chloro-2-heptyl-3-hydroxy-cyclopentyl)-propyl]-thiophene-2-carboxylic acid] | – | – | – | – |
| 5.17 | 6.40 | 9.40 | – | 5.02 | 4.94 | 4.74 | – | 9.30 | 7.96 | – | 1.3 | – | CCCCCCCC[C@@H]1[C@@H](CCCc2ccc(C(=O)O)s2)[C@H](Cl)C[C@H]1O [Entry 4, 5-[3-((1R,2R,3R,5R)-5-Chloro-3-hydroxy-2-octyl-cyclopentyl)-propyl]-thiophene-2-carboxylic acid] | 31% | 40% | – | – |
| – | – | – | – | – | – | – | – | – | – | – | – | 2.4 | CCCCCCCC[C@@H]1[C@@H](CCSc2nc(C(=O)O)cs2)[C@H](Cl)C[C@H]1O [Entry 6-8, 2-(2-((1R,2R,3R,5R)-5-chloro-3-hydroxy-2-octylcyclopentyl)ethylthio)thiazole-4-carboxylic acid] | – | – | 56% | 44% |
| 5.49 | 6.45 | 9.70 | – | 5.30 | 5.19 | 6.05 | 5.12 | 8.52 | 8.15 | 4.99 | – | – | C=CCCCCCC[C@@H]1[C@@H](CCCc2ccc(C(=O)O)s2)[C@H](Cl)C[C@H]1O [Entry 12, 5-[3-((1R,2R,3R,5R)-5-Chloro-3-hydroxy-2-oct-7-enyl-cyclopentyl)-propyl]-thiophene-2-carboxylic acid] | – | – | – | – |
